Columns and labels:
test organism = test: Nisin in letheen broth sub-culture: effect on the test organism; assay type: cell-based; conditions: 0.1 μg/ml nisin in letheen broth
Method: (§1) Nisin is not an ingredient in the product formulation. It is a modification to the AOAC test method. Specifically, when setting up the test sub-culture 0.1 μg/ml of nisin is added to the letheen broth.

Bacillus spores = test: Nisin in letheen broth sub-culture: out-growth of Bacillus spores; assay type: cell-based; conditions: 0.1 μg/ml nisin in letheen broth
Method: as §1

For nisin, the “bacteriostatic effect on the test organism” value (test organism) was “no bacteriostatic effect” and the “out-growth of Bacillus spores transferred on the carrier” value (Bacillus spores) was “inhibits out-growth”.
